Experimental data: patent publication US20140213475A1, “METHODS OF DIAGNOSING CANCER USING EPIGENETIC BIOMARKERS” (University of Massachusetts, priority 2011, published 2014)

Key:
[1] = test system: normal human fibroblasts (Tig-1); experiment: BMI-1/Ring1B (PRC1) CAP body formation in normal fibroblasts after treatment with DNA demethylating agent, immunofluorescence and 1q12 DNA FISH; type: cell-based; settings: for number of CAP positive cells: 0.2 ug/ml added fresh daily
Excerpt: (§1) FIGS. 6A-6E. […] FIG. 6C is a photomicrograph showing that longer treatment (8 days total) results in aberrant expression of Sat II RNA from other loci that are not associated with BMI-1 bodies.
(§2) Importantly, aberrant Sat II RNA foci also appeared with longer term 5-aza-2d treatment, and importantly from sites distinct from 1q12 bearing the accumulated BMI-1 bodies (FIG. 6C). Aberrant Sat II expression was not seen in control or 1 day treated cells, was rare on day 3 and in ˜5-10% of cells by day 8. These findings reveal significant mechanistic insight into why PcG proteins so markedly accumulate at 1q12 in cancer but not normal cells, and provide important evidence of a link between two intensely studied areas of cancer epigenetics, DNA methylation and polycomb proteins.
(§3) Twenty two cell lines were examined in this study (list in Supplement), and grown in conditions recommended by suppliers (ATCC, Cambrex, and Coriell). 5-azacytidine (6 mM) and 5-aza-2′deoxycytidine (0.2 ug/ml) was added fresh daily to asynchronously growing cultures and refreshed every day. Our standard fixation protocols have been detailed previously (Johnson et al., 1991; Tam et al., 2002), and summarized in the Supplement. Human effusions were fixed as for cultured cells and tissue blocks were cryosectioned onto cold glass slides (HistoBond+), and stored at −80 briefly until fixation. Of four fixations tested (Supplement) the one that gave best results was brief triton extraction followed by paraformaldehyde fixation and storage in ETOH.
Simultaneous DNA/RNA and antibody detection: Most antibodies were used prior to RNA or DNA hybridization. Briefly, slides were incubated in the appropriate dilution of primary antibody in 1% BSA, 1xPBS and 1 U/ul RNasin, for 1 hour at 37 C. Slides were washed, and immunodetection was performed using 1:500 dilution of appropriately conjugated (Alexa 488 or Alexa 594, Invitrogen) secondary (anti-goat, mouse or rabbit) antibody, in 1×PBS with 1% BSA. The antibody signal is fixed in 4% paraformaldehyde for 10 min prior to hybridization (performed as detailed above), and all slides were counter stained with DAPI. Vectashield (Vector Labs) was used as mounting media for all fluorescence imaging.

[2] = test system: Sat II on Chromosome 1; settings: Ji et al., 1997; cited from earlier work
[3] = test system: normal human fibroblasts (Tig-1); experiment: Aberrant Sat II RNA foci in normal fibroblasts after treatment with DNA demethylating agent, RNA FISH; type: cell-based
Excerpt: as §1, §2, §3
Sat2-24 nt LNA was used for most images unless otherwise indicated. Several methods of Sat 2 probe labeling and detection were tested (see below). RNA-specific hybridization was carried out under non-denaturing conditions where the DNA was not accessible. Oligos were usually hybridized at 15% formamide conditions, but were also compared to higher stringency hybridizations at 40% and 50% formamide. […]

Nc1ncn([C@H]2C[C@H](O)[C@@H](CO)O2)c(=O)n1 [5-aza-2d, 5-aza-2′-deoxycytidine]
number of CAP bodies per cell ([1]; Day 1 of treatment): ~2
number of CAP positive cells ([1]; Day 1 of treatment): 15%
number of CAP positive cells ([1]; Day 3 of treatment): 52%
number of CAP bodies per cell ([1]; Day 8 of treatment): ~4
number of CAP positive cells ([1]; Day 8 of treatment): 80%
demethylation of Sat II on Chromosome 1 [2]: effectively demethylate Sat II on Chromosome 1
aberrant Sat II expression (Sat II RNA foci) ([3]; 1 day treated cells): not seen
aberrant Sat II expression (Sat II RNA foci) ([3]; day 3 of treatment): rare
aberrant Sat II expression (Sat II RNA foci), cells positive ([3]; day 8 of treatment): 5-10 % of cells
